The values that follow come from patent publication US20160303184A1, “VANCOMYCIN-SUGAR CONJUGATES AND USES THEREOF” (JAWAHARLAL NEHRU CENTRE FOR ADVANCED SCIENTIFIC RESEARCH …, priority 2013, published 2016).

The test system of data set [1] is methicillin-resistant vancomycin-intermediate S. aureus (MR-VISA). The experiment in a line: Time-kill assay. It counts as cell-based. The note with it: 2 μM and 4 μM. The method, then:
The bactericidal activity was assessed by the kinetics or the rate at which it affects the killing action of the compound. Briefly methicillin-resistant vancomycin-intermediate S. aureus (MR-VISA) grown in Yeast-Dextrose broth. A starting inoculum of 1.6×10^8 CFU/ml was used as initial bacterial colony count. Vancomycin and compound 7 having final concentrations of 2 μM and 4 μM were inoculated with MR-VISA suspensions having starting inocula of 1.6×10^8 CFU/ml. Bacterial suspension containing specified concentrations of the compound along with negative control (which contains only 0.9% Saline) was incubated at 37° C. with shaking. Aliquots (20 μl) were removed from the cultures at different time intervals and were serially diluted 10-fold in 0.9% saline and plated onto sterile Yeast-Dextrose agar medium. The number of viable cells was determined by plating the 10-fold serial dilution of each sample onto Yeast-dextrose agar medium. Plates were then incubated for 24 h at 37° C., CFU was counted and the total bacterial log 10 CFU/ml was determined.

For data set [2], the system named is VISA. Kind of data set: Ex-vivo whole blood assay. The note with it: 3 h incubation in 90% human whole blood. The data set is classed as cell-based, S. aureus. The method, then:
Ex-vivo whole blood assay was performed to compare the abilities of these compounds to retain activity in complex media. To 30 μL of VISA in saline (0.9% NaCl; 10^6 CFU/mL) 10 μL of test compounds (vancomycin and compound 7) and 270 μL of fresh human whole blood were added and incubated, at 37° C. for about 3 h. After the incubation period, antibacterial activity was determined by finding the bacterial titer in the infected blood.

Data set [3] deals with methicillin-resistant S. haemolyticus clinical isolate. The experiment in a line: MIC, clinical isolate of methicillin-resistant S. haemolyticus. The data set is classed as cell-based. The note with it: Staphylococcus haemolyticus, read-out: MIC S. haemolyticus.
Data set [4] can be described thus: Systemic toxicity (LD50). More on the design: species or system CD-1 female mice. The note with it: female, CD-1, mouse, in vivo, iv, single-dose i.v., mice. The method, then: Systemic toxicity was examined after i.v injection of compound 7 to CD-1 female mice. Each mouse was injected with a 0.2 ml of freshly prepared compound 7 solution in saline. The doses of the compound administered per group were according to OECD guidelines (OECD, 2005).

Data set [5] concerns MR-VISA. The experiment in a line: Pharmacodynamics against MR-VISA thigh infection, single dose. The data set is classed as in vivo, Staphylococcus aureus. As to conditions: single i.v. dose; for ED50: 50% maximal bacterial killing; for EDstasis: 24-h colony count similar to pretreatment count. The method, then:
Data are expressed as means±SD (error bars). A separate single-dose study of compound 7 was performed in neutropenic mice inoculated in the thigh with 50 μL of MR-VISA (10^7 CFU/ml). Infected animals were treated intravenously, at 1 h post infection, with 2 mg/kg, 4 mg/kg, 8 mg/kg and 12 mg/kg. At 24 h post inoculation mice were sacrificed and the thigh tissues were harvested for determination of bacterial titer as mentioned above.

The subject of data set [6] is Vancomycin-sensitive E. faecium (ATCC 19634). The experiment in a line: MIC, micro-dilution broth, VSE. It counts as cell-based. As to conditions: Enterococcus faecium, ATCC19634, read-out: MIC VSE. The method, then:
(§1) All test compounds were assayed in a micro-dilution broth format. Stock solutions were made by serially diluting the compounds using autoclaved millipore water or broth media. The antibacterial activity of the compounds was determined against methicillin-sensitive S. aureus (MSSA), methicillin-resistant S. aureus (MRSA), vancomycin-intermediate-resistant S. aureus (VISA), vancomycin-sensitive E. faecium (VSE) and vancomycin-resistant E. faecium (VRE). Bacteria, to be tested, were grown for about 10 h in the suitable media, MSSA, MRSA and VISA were grown in yeast-dextrose broth (about 1 g of beef extract, about 2 g of yeast extract, about 5 g of peptone and about 5 g of NaCl in about 1000 mL of sterile distilled water (pH-7)). For solid media, about 5% agar was used along with above mentioned composition. VSE and VRE were cultured in brain heart infusion broth (Himedia). The bacterial samples were freeze dried and stored at −80° C. About 5 μL of these stocks were added to about 3 mL of the nutrient broth and the culture was grown for about 6 h at about 37° C. prior to the experiments. This 6 h grown culture gives about 10^9 cfu/mL and this was determined by spread plating method. The 6 h grown culture was diluted to give effective cell concentration of about 10^5 cfu/mL which was then used for determining MIC. Compounds were serially diluted, in sterile water (2 fold dilution is employed) in a way that the working concentration was about 10 μM for MSSA, MRSA, and VSE while for VRE and VISA it was about 100 μM. About 50 μL of these serial dilutions were added to the wells of 96 well plate followed by the addition of about 150 μL of bacterial solution. The plates were then incubated at about 37° C., 150 rpm in the incubator and O.D at 600 nm was recorded at an interval of about 10 h and 24 h using TECAN (Infinite series, M200 pro) Plate Reader. Each concentration had triplicate values and the whole experiment was done at least twice and the MIC value was determined by taking the average of triplicate. O. D. values for each concentration and plotting it against concentration. The data was then subjected to sigmoidal fitting. From the curve the MIC value was determined, as the point in the curve where the O. D. was similar to that of control having no bacteria.
In general terms: In broth dilution the organism is exposed to a series of concentrations in liquid medium.

For data set [7], the system named is Vancomycin-resistant E. faecium (VanA, ATCC 51559). The experiment in a line: MIC, micro-dilution broth, VRE (VanA). It counts as cell-based. The method, then: as §1
For data set [8], the system named is Vancomycin intermediate resistant S. aureus. The experiment in a line: MIC, micro-dilution broth, VISA. It counts as cell-based. The note with it: VISA. The method, then: as §1

Values after ≈ are worked out from the molar mass of the structure shown. Where two headings read alike, the source gives them in different places.

As for `CCCCCCCCCCN[C@]1(C)C[C@H](OC2C(O)[C@@H](O)C(CO)O[C@@H]2Oc2c3cc4cc2Oc2ccc(cc2Cl)[C@@H](O)[C@@H](NC(=O)[C@@H](CC(C)C)NC)C(=O)N[C@@H](CC(N)=O)C(=O)N[C@H]4C(=O)N[C@H]2C(=O)N[C@H](C(=O)N[C@H](C(=O)NCCCNC(=O)[C@H](O)[C@@H](O)[C@H](OC4OC(CO)C(O)C(O)[C@H]4O)[C@H](O)CO)c4cc(O)cc(O)c4-c4cc2ccc4O)[C@H](O)c2ccc(c(Cl)c2)O3)OC(C)[C@@H]1O` (stereo partly shown) [Compound 7], the killing kinetics result in data set [1] is “rapid”. In addition, the “bactericidal activity in whole blood” value in data set [2] was “rapid bactericidal activity”. Moreover, the MIC in data set [3] was found to be 0.41 µM (≈ 0.814 µg/mL); in data set [6], 0.15 µM (≈ 0.298 µg/mL); in data set [7] (Enterococcus faecium, read-out: MIC VRE (VanA)), 1 µM (≈ 1.99 µg/mL); in data set [8] (Staphylococcus aureus, read-out: MIC VISA), 0.2 µM (≈ 0.397 µg/mL). This compound also had an LD50 at 14 days in data set [4] greater than 100 mg/kg. Further, the 50% effective dose (ED50) was determined as 1.05 mg/kg in data set [5] (Staphylococcus aureus, VISA, in Mus musculus, iv, 24 h, neutropenic mice thigh, 24 h, read-out: ED50) and 1.0 mg/kg in data set [5] (neutropenic mice thigh, 24 h). Also, the ED1-log kill in data set [5] (neutropenic mice thigh, 24 h) turned out to be 3.7 mg/kg. In addition, in data set [5] (neutropenic mice thigh, 24 h), the ED2-log kill was determined as 8.8 mg/kg. The same compound had an ED2.6-log kill in data set [5] (neutropenic mice thigh, 24 h) of 12 mg/kg. Further, the EDstasis in data set [5] amounted to 2.2 mg/kg; in data set [5] (listed as compound 7) it was 2.22 mg/kg. In data set [7] (VRE (VanA phenotype)), the “fold higher activity than vancomycin” value is recorded as greater than 700 fold. Moreover, the “fold more active than vancomycin” value in data set [8] is recorded as “about 65 fold”.

In general, MIC refers to the smallest concentration in the dilution series that meets the test's criterion for growth inhibition. The LD50 is the dose at which mortality reaches 50%. A lower LD50 goes with greater toxicity. A word on the ED50: it is the dose at which the effect has come halfway, by size or by number of responders.
